# Data taken from patent publication US20250129027A1 (APOGEE PHARMACEUTICALS, INC., priority 2023, published 2025).
# Where two headings read alike, the source gives them in different places.
# What was measured:
# [1] = Aqueous solubility in PBS buffer pH 7.4 (LC-MS); assay type: physicochemical; conditions: phosphate buffer, kinetic from dmso stock, PBS buffer pH 7.4, room temperature, spiked at 100 μM from DMSO stock
# Protocol: Compounds as described herewith were analyzed for their aqueous solubility.
# The aqueous solubility of compounds were determined using standard protocols. To illustrate the experimental protocol, the analysis of a representative compound is described. Exemplary compound of Example 158 (MW: 380.4 g/mol) was analyzed in a buffer system at specified pH (phosphate buffer, pH 7.4). This was accomplished by spiking a DMSO stock solution of the test compound at a final concentration of 100 μM in buffer.
# Solubility calculation: This is a quantitative assay. The mixture at the end of the assay is filtered by 0.22 micron syringe filter and after 5× dilution in diluent, it was analyzed versus a calibration curve using LC-MS.
# [2] = Plasma stability (LC-MS/MS, % parent compound remaining, half-life); assay type: in vitro ADME; conditions: human plasma; for half-life at 1 μM: 37° C., 0-240 mins, read-out: Human Plasma Stability (t1/2, min); for plasma stability and/or aqueous solubility compared to reference compound URB597: see Table 5
# Protocol: Exemplary compounds described herewith were assayed for plasma stability (various species).
# Plasma was removed from deep freezer and allowed to thaw at room temperature (or at 37° C. if needed). Plasma was then centrifuged at 4,000 rpm at RT for 10 min and supernatant was collected and used for the assay: • Drug test tubes: 297 μL plasma/drug test tube, duplicate/drug. • Blank test tubes: 297 μL plasma/Blank test tube, duplicate, too. (Optional, if assay system is stable and consistent) • T0 plasma tube: […] X No. of total sample tubes+50 μL extra for T0 extraction. • (Note: equivalent proportion of solvent mixture as added in drug test tubes will be added before T0 extraction!)
# Take out the pre-warmed plasma tubes from the 37° C. incubator. Add 3 μL of 100 μM stock solution (or, equivalent proportion of the solvent mixture to T0 plasma tube for T0 extraction) to each corresponding sample tubes in order, vortex gently (3×) to mix. Finish the sample tubes orderly and quickly, then transfer them to the Thermomixer (program & 37° C. ready), and start the Thermomixer. Record starting time on paper & start the timer for 15 min for the 1st sampling time point.
# Now add the equivalent amount of solvent mixture to the T0 plasma tube, mix, and transfer 50 μL plasma to each of the T0 extracting tubes, vortex 20s and placed on ice. Vortex 10s again before centrifuging the samples at 14,000 rpm for 5 min at 4° C.
# Repeat the above procedures at each time point (15, 30, 60, 120, 240 min) by transferring 50 μL plasma samples from the testing tubes to the corresponding extracting tubes, in the same order and time scheme as in the addition of the drug to the plasma samples at the beginning of the study.
# • Kel=Slope of LN % PCR vs time
# Half life (t½)=0.693/Kel (1)
# human recombinant MAGL = human recombinant MAGL (Homo sapiens (Human), UniProt Q99685); test: In vitro inhibition of MAGL activity (inhibitor screening kit, 4-nitrophenylacetate); assay type: biochemical; conditions: human recombinant MAGL
# Procedure, shortened: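 Percent inhibition derived from absorbance (405-412 nm) of treated wells relative to untreated enzyme control. Human recombinant MAGL with 4-nitrophenylacetate substrate, whose cleavage yields yellow 4-nitrophenol.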
# [3] = oral dosing, dose of 250 mg/kg; cited from earlier work
# [4] = Pharmacokinetic study in rats, IV and oral gavage, with brain penetration; assay type: in vivo, rat; conditions: for Cmax exposure relative to URB597: 10 mg/kg PO vs URB597 at 250 mg/kg; for clearance: read-out: CLp; for Vd: read-out: Vdss; for improvement in oral exposure maximums compared to URB597: dose-adjusted (25× lower dose, 10× Cmax); for Kp at 0.5 h: read-out: Brain/Plasma ratio (0.5 h); for Kp at 1 h: read-out: Brain/Plasma ratio (1 h)
# Protocol: In pharmacokinetic (PK) studies, animals were administered compounds of the present disclosure and PK parameters were measured. Rats (male, Sprague Dawley) were administered compound of Example 158 at a dose of 1.0 mg/kg intravenously (IV) or 10 mg/kg via oral gavage (PO). Blood samples were taken at t=0.083, 0.25. 0.5, 1, 2, 4, 6, 8 and 24 h post-dose and the plasma was analyzed for concentration of test article (compound of Example 158). Using standard analytical methodology (HPLC analysis), the following parameters were obtained:
# Rats were administered compound of Example 172 at a dose of 1.0 mg/kg intravenously (IV) or 10 mg/kg via oral gavage (PO). Using standard analytical methodology (HPLC analysis), the following parameters were obtained: […]
# human recombinant FAAH = human recombinant FAAH (Homo sapiens (Human), UniProt O00519); test: In vitro inhibition of FAAH activity (fluorescent inhibitor screening kit, AMC arachidonoyl amide); assay type: biochemical
# Procedure, shortened: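 Fluorogenic kit assay: AMC arachidonoyl amide is cleaved by human recombinant FAAH, read at 340-360/450-465 nm. Percent inhibition versus non-treated control; IC50 values derived from multiple compound concentrations where tested.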
# [5] = Sprague Dawley, plasma, rat (SD, male), IV 1.0 mg/kg, read-out: AUC0-Y (ng h/mL), IV
# [6] = Sprague Dawley, plasma, rat (SD, male), IV 1.0 mg/kg
# [7] = Sprague Dawley, plasma, rat (SD, male), IV 1.0 mg/kg, read-out: t1/2 (h), IV (converted)
# [8] = male, Sprague Dawley, brain, intravenous, 1 mg/kg, rat
# [9] = male, Sprague Dawley, brain, rat
# [10] = male, Sprague Dawley, plasma, rat, PO 10.0 mg/kg
# [11] = male, Sprague Dawley, plasma, rat, PO 10.0 mg/kg, read-out: AUC0-Y (ng h/mL), PO
# [12] = male, Sprague Dawley, plasma, rat, PO 10.0 mg/kg, read-out: Cmax
# [13] = male, Sprague Dawley, plasma, rat, PO 10.0 mg/kg, read-out: Cmax (ng/mL)
# [14] = male, Sprague Dawley, plasma, rat, PO 10.0 mg/kg, read-out: t1/2 (h), PO (converted)
# [15] = rat, PO 10.0 mg/kg vs IV 1.0 mg/kg
# [16] = FAAH, values as listed in Table 5, read-out: IC50
# [17] = human recombinant FAAH, read-out: Inhibition on FAAH activity (IC50)
# Sequence of human recombinant FAAH (O00519 whole entry): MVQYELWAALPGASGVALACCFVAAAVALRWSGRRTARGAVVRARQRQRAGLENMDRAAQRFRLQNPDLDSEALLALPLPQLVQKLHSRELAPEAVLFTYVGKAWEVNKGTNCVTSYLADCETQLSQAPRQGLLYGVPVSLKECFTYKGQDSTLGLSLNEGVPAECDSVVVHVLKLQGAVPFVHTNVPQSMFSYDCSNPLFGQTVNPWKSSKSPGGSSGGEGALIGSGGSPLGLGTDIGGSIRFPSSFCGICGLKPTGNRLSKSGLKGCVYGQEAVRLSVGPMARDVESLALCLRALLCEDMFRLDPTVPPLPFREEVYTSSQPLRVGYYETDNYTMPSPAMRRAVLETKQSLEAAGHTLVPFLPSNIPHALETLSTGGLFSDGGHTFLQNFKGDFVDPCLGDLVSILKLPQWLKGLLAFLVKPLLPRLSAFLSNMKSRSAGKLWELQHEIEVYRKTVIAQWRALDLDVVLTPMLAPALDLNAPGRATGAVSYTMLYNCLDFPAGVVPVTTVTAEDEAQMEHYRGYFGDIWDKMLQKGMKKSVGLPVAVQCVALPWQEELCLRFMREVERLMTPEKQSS
# Sequence of human recombinant MAGL (Q99685 whole entry): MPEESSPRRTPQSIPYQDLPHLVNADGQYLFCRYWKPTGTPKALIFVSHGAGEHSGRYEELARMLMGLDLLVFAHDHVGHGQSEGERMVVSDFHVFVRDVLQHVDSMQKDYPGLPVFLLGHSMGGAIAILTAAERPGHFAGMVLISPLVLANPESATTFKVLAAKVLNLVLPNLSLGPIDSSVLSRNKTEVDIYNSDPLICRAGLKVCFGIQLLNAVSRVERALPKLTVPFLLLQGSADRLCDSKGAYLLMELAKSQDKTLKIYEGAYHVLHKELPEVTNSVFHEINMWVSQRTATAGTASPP
compound,measurement,setting,value
"NC(=O)c1cccc(-c2cccc(OC(=O)NC3CCCCC3)c2)c1 [URB597, reference compound]",solubility,[1],2.8 µM
same,half-life at 1 μM,[2],47 min
same,IC50,human recombinant MAGL,> 50 µM
same,Cmax,[3],~200 ng/mL
"COc1ccc(OC(=O)NC2CCCCCC2)cc1-c1cncc(-c2nnco2)c1 [Example 172, 3-(5-(1,3,4-oxadiazol-2-yl)pyridin-3-yl)-4-methoxyphenyl cycloheptylcarbamate]",solubility,[1],16.2 µM
same,half-life at 1 μM,[2],361 min
same,plasma stability and/or aqueous solubility compared to reference compound URB597,[2],"improved plasma stability, improved aqueous solubility, or improved plasma stability and aqueous solubility"
same,IC50,human recombinant MAGL,> 10 µM
same,Cmax exposure relative to URB597,[4],~10 ×
same,AUC,[4]; [5],424 ng·h/mL
same,clearance,[4]; [6],40 mL/min/kg
same,Vd,[4]; [6],1.58 L/kg
same,half-life,[4]; [7],0.8 h
same,improvement in oral exposure maximums compared to URB597,[4],~250 ×
same,Kp at 0.5 h,[4]; [8],0.15
same,Kp at 1 h,[4]; [8],0.19
same,Kp at 0.5 h,[4]; [9],0.15
same,Kp at 1 h,[4]; [9],0.19
same,Kp,"[4]; male, Sprague Dawley, brain, rat, time not stated, read-out: Brain/Plasma ratio",> 0.15
same,Tmax,[4]; [10],30 min
same,AUC,[4]; [11],5260 ng·h/mL
same,Cmax,[4]; [12],5.91 µM
same,Cmax,[4]; [13],2250 ng/mL
same,half-life,[4]; [14],1.25 h
same,Co,"[4]; rat (SD, male), IV 1.0 mg/kg",1528 ng/mL
same,Co [uM],"[4]; rat (SD, male), IV 1.0 mg/kg",[4.02 uM]
same,"AUC0-Y (ng h/mL), PO","[4]; rat, PO 10.0 mg/kg",5257 ng·h/mL
same,F (%) oral bioavailability,[4]; [15],>100%
same,IC50,human recombinant FAAH; [16],0.112 µM
same,IC50,human recombinant FAAH; [17],0.112 µM
"O=C(NC1CCCCCC1)Oc1ccc(OC(F)(F)F)c(-c2cncc(-c3ncco3)c2)c1 [Example 91, 3-(5-(oxazol-2-yl)pyridin-3-yl)-4-(trifluoromethoxy)phenyl cycloheptylcarbamate]",solubility,[1],2.4 µM
same,half-life at 1 μM,[2],14 min
same,IC50,human recombinant MAGL,> 10 µM
same,IC50,human recombinant FAAH; [16],0.492 µM
same,IC50,human recombinant FAAH; [17],0.1 to 1 µM
"COc1cc(OC(=O)NC2CCCCCC2)cc(-c2cncc(-c3nnco3)c2)c1 [Example 179, 3-(5-(1,3,4-oxadiazol-2-yl)pyridin-3-yl)-5-methoxyphenyl cycloheptylcarbamate]",solubility,[1],9.2 µM
same,half-life at 1 μM,[2],18 min
same,IC50,human recombinant MAGL,10 to 50 µM
same,IC50,human recombinant FAAH; [16],0.0911 µM
same,IC50,human recombinant FAAH; [17],0.0911 µM
"O=C(NC1CCCCC1)Oc1ccc(O)c(-c2cncc(-c3nnco3)c2)c1 [Example 158, 3-(5-(1,3,4-oxadiazol-2-yl)pyridin-3-yl)-4-hydroxyphenyl cyclohexylcarbamate]",solubility,[1],92.5 µM
same,half-life at 1 μM,[2],350 min
same,plasma stability and/or aqueous solubility compared to reference compound URB597,[2],"improved plasma stability, improved aqueous solubility, or improved plasma stability and aqueous solubility"
same,IC50,human recombinant MAGL,> 50 µM
same,Cmax exposure relative to URB597,[4],~10 ×
same,AUC,[4]; [5],1340 ng·h/mL
same,clearance,[4]; [6],12 mL/min/kg
same,Vd,[4]; [6],0.62 L/kg
same,half-life,[4]; [7],0.31 h
same,improvement in oral exposure maximums compared to URB597,[4],~250 ×
same,Kp at 0.5 h,[4]; [9],0.01
same,Kp at 1 h,[4]; [9],0.02
same,Tmax,[4]; [10],30 min
same,AUC,[4]; [11],7050 ng·h/mL
same,Cmax,[4]; [12],5.05 µM
same,Cmax,[4]; [13],1920 ng/mL
same,half-life,[4]; [14],2.85 h
same,bioavailability,"[4]; male, Sprague Dawley, rat, plasma, oral, 10 mg/kg, rat, PO 10.0 mg/kg vs IV 1.0 mg/kg, read-out: F (%) oral bioavailability",53%
same,Co,"[4]; rat (SD, male), IV 1.0 mg/kg",4829 ng/mL
same,Co [uM],"[4]; rat (SD, male), IV 1.0 mg/kg",[12.7 uM]
same,"AUC0-Y (ng h/mL), PO","[4]; rat, PO 10.0 mg/kg",7054 ng·h/mL
same,"t1/2 (h), PO","[4]; rat, PO 10.0 mg/kg",2.85 h
same,F (%) oral bioavailability,[4]; [15],> 50%
same,IC50,human recombinant FAAH; [16],0.127 µM
same,IC50,human recombinant FAAH; [17],0.124 µM
"O=C(NC1CCCCC1)Oc1cccc(-c2cncc(-c3nnco3)n2)c1 [Example 267, 3-(6-(1,3,4-oxadiazol-2-yl)pyrazin-2-yl)phenyl cyclohexylcarbamate]",solubility,[1],73.6 µM
same,half-life at 1 μM,[2],12 min
same,IC50,human recombinant MAGL,> 10 µM
same,IC50,human recombinant FAAH; [16],0.14 µM
same,IC50,human recombinant FAAH; [17],0.14 µM
"O=C(NC1CCCCCC1)Oc1cccc(-c2cncc(-c3ncn[nH]3)c2)c1 [Example 225, 3-(5-(1H-1,2,4-triazol-5-yl)pyridin-3-yl)phenyl cycloheptyl carbamate]",solubility,[1],8.6 µM
same,half-life at 1 μM,[2],47 min
same,plasma stability and/or aqueous solubility compared to reference compound URB597,[2],"improved plasma stability, improved aqueous solubility, or improved plasma stability and aqueous solubility"
same,IC50,human recombinant MAGL,~10 µM
same,IC50,human recombinant FAAH; [16],0.176 µM
same,IC50,human recombinant FAAH; [17],0.176 µM
"CSc1ccc(OC(=O)NC2CCCCCC2)cc1-c1cncc(-c2nnco2)c1 [Example 191, 3-(5-(1,3,4-oxadiazol-2-yl)pyridin-3-yl)-4-(methylthio)phenyl cycloheptylcarbamate]",solubility,[1],11.9 µM
same,half-life at 1 μM,[2],31 min
same,plasma stability and/or aqueous solubility compared to reference compound URB597,[2],"improved plasma stability, improved aqueous solubility, or improved plasma stability and aqueous solubility"
same,IC50,human recombinant MAGL,> 10 µM
same,IC50,human recombinant FAAH; [16],0.153 µM
same,IC50,human recombinant FAAH; [17],0.153 µM
"O=C(NC1CCCCC1)Oc1cccc(-c2cncc(-c3ccco3)c2)c1 [Example 51, 3-(5-(furan-2-yl)pyridin-3-yl)phenyl cyclohexylcarbamate]",solubility,[1],1.4 µM
same,half-life at 1 μM,[2],8 min
same,IC50,human recombinant MAGL,> 10 µM
same,IC50,human recombinant FAAH; [16],0.0761 µM
same,IC50,human recombinant FAAH; [17],0.0761 µM
"O=C(NC1CCCCCC1)Oc1ccc(F)c(-c2cncc(-c3ncco3)c2)c1 [Example 87, 4-fluoro-3-(5-(oxazol-2-yl)pyridin-3-yl)phenyl cycloheptylcarbamate]",solubility,[1],8.6 µM
same,half-life at 1 μM,[2],7 min
same,IC50,human recombinant MAGL,> 10 µM
same,IC50,human recombinant FAAH; [16],0.0239 µM
same,IC50,human recombinant FAAH; [17],0.0239 µM
